38 molecules from ChEMBL document CHEMBL1142723, “Discovery of a potent, selective, and efficacious class of reversible alpha-ketoheterocycle inhibitors of fatty acid amide hydrolase effective as analgesics” (J Med Chem, 2005) can be followed below.

Some results are limits rather than exact numbers.

Experiment [1] in a line: Inhibitory concentration against KIAA1363 hydrolase.
For experiment [2], the target named is T1, Fatty-acid amide hydrolase 1 (Homo sapiens, UniProt O00519).
T1 sequence (O00519 whole entry): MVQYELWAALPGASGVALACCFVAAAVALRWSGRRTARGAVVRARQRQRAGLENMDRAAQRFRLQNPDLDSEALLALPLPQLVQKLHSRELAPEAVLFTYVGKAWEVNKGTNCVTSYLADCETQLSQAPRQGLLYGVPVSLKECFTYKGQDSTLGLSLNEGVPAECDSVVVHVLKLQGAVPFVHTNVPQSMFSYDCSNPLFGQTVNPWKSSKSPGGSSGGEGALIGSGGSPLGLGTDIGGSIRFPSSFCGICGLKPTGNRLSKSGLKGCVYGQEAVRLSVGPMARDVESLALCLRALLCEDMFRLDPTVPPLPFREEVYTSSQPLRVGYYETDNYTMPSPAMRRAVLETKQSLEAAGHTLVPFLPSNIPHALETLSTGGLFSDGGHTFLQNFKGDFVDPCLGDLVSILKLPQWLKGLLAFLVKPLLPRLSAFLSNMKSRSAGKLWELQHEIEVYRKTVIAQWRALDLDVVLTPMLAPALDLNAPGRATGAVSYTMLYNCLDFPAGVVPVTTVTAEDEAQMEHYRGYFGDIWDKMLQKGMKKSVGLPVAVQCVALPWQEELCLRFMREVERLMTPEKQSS
The experiment is described as follows: Inhibitory concentration against Fatty-acid amide hydrolase.

A further experiment concerns the target T2, Liver carboxylesterase 1 (Homo sapiens, UniProt P23141).
T2 sequence (P23141 whole entry): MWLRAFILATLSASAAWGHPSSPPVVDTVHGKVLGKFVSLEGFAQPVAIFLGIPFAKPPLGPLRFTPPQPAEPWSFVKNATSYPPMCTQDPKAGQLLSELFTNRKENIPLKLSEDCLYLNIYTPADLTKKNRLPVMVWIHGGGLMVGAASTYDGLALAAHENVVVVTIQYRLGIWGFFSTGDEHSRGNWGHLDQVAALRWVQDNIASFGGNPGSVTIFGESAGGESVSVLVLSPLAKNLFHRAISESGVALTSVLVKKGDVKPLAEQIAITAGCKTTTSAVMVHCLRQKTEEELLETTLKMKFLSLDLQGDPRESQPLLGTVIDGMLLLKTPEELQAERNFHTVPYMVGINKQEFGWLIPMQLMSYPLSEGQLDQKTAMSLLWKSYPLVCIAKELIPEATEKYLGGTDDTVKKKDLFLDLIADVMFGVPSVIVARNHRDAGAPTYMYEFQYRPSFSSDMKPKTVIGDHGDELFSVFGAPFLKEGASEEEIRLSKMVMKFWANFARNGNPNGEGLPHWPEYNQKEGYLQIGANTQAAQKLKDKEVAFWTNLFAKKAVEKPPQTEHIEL
In words: Inhibitory concentration against Triacylglycerol hydrolase.

The target in experiment [3] is T3, Fatty-acid amide hydrolase 1 (Rattus norvegicus, UniProt P97612).
T3 sequence (P97612 whole entry): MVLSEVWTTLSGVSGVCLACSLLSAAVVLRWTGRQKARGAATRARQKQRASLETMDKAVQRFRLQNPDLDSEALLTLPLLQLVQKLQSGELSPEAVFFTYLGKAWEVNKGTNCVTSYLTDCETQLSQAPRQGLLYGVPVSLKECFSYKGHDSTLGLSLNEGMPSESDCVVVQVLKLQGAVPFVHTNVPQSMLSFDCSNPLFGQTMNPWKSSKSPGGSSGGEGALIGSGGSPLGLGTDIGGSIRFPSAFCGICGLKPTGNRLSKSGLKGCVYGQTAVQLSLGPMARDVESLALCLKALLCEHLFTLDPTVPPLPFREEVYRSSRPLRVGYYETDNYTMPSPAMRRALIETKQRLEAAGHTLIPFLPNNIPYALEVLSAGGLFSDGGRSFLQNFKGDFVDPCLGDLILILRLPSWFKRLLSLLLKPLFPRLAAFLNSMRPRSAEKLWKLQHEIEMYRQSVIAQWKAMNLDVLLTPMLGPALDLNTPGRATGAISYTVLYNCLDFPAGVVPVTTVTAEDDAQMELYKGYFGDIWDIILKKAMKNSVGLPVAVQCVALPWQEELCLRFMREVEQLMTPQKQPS
In words: Inhibitory constant determined against recombinant Fatty-acid amide hydrolase from rat expressed in Escherichia coli.

Experiment [4] has as its target T1, Fatty-acid amide hydrolase 1. The experiment is described as follows: Inhibitory constant determined against recombinant Fatty-acid amide hydrolase from human expressed in COS-7 cells. In kind it is cell-based.

In the case of `O=C(CCCCCc1ccccc1)C(F)(F)F`, in experiment [1], the midpoint of inhibition, the IC50, lay at 0.8 µM. This lies in the sub-micromolar range.
Take `CCCCCCCCC#CCCCCCCCC(=O)c1nc2ncccc2o1`: the IC50 worked out at 0.002 µM in experiment [2], 0.5 µM at Liver carboxylesterase 1 and 20 µM in experiment [1]. In addition, the Ki in experiment [3] was determined as 0.00014 µM.
On the same counts, the results for `CCCCCCCC/C=C\CCCCCCCC(=O)C(F)(F)F` are 4.5 µM, 4.8 µM, 1.1 µM and 0.08 µM.
The corresponding values for `CCCCCCCCC#CCCCCCCCC(=O)c1ncc(-c2ccccn2)o1` are 0.02 µM, 30 µM, over 100 µM and 0.01 µM.
In experiment [1], `CCCCCCCC(=O)C(F)(F)F` had a half-maximal inhibitory concentration (IC50) of 1.5 µM.
On the same count and under the same terms, under `CCCCCCCCCCCCCCCCCC(=O)C(F)(F)F` stands 6.6 µM.
Same read-out and setting: under `O=C(CCCCCc1ccccc1)c1nc2ccccc2o1` stands over 100 µM.
Still for that read-out and setting: under `O=C(CCCCCCc1ccccc1)c1ncc(-c2ccccn2)o1` stands over 100 µM.
Molecule `O=C(CCCCCCc1ccccc1)c1nc2ncccc2o1` had a half-maximal inhibitory concentration (IC50) in experiment [1] of 20 µM. Besides, the inhibitory constant (Ki) in experiment [3] was determined as 0.00028 µM.
In experiment [1], `CCCCCCCCCC(=O)C(F)(F)F` displayed an IC50 of 0.4 µM.
On to `CCCCCCCC/C=C\CCCCCCCC(=O)c1nc2ncccc2o1`, for which half-maximal inhibition in experiment [1] (IC50) was put at 60 µM. Moreover, the inhibition constant Ki in experiment [3] came to 0.0023 µM.
On the same counts, the results for `O=C(CCCCCc1ccccc1)c1nc2ncccc2o1` are 10 µM and 0.0002 µM.
Turning to `O=C(c1ccccc1)C(F)(F)F`, the IC50 was over 100 µM in experiment [2], 0.004 µM against Liver carboxylesterase 1 and 10 µM in experiment [1].
`O=C(CCCCCCCc1ccccc1)C(F)(F)F` gave an IC50 in experiment [1] of 0.2 µM.
As for `CCCCCCCC/C=C\CCCCCCCC(=O)c1ncc(-c2ccccn2)o1`, the IC50 in experiment [2] is 0.15 µM; against Liver carboxylesterase 1 it was over 100 µM; in experiment [1] it was over 100 µM. Moreover, the Ki in experiment [4] stood at 0.01 µM.
On to `CCCCCCCC/C=C\CCCCCCCC(=O)c1nc(-c2ccccn2)co1`, for which the inhibition constant Ki in experiment [3] is 0.031 µM.
Same read-out and setting: the same measure for `O=C(CCCCCCc1ccccc1)c1ncc(-c2cnccn2)o1`: 0.0053 µM.
Same read-out and setting: the same measure for `C#CCCCCC(=O)c1ncc(-c2ccccn2)o1`: 1.3 µM.
In the case of `O=C(Cc1ccccc1)C(F)(F)F`, the 50% inhibitory concentration (IC50) was over 100 µM in experiment [2], 0.01 µM at Liver carboxylesterase 1 and 10 µM in experiment [1].
On to `CCCCCCCCCCCCCCCCCC(=O)c1ncc(-c2ccccn2)o1`, for which the Ki in experiment [3] came to 0.059 µM.
Same read-out and setting: the same measure for `CCCCCCCC/C=C\CCCCCCCC(=O)c1ncc(-c2ncco2)o1`: 0.012 µM.
`CCCCCCCC/C=C\CCCCCCCC(=O)c1nc2ccccc2o1`: the IC50 in experiment [1] was over 100 µM. Further, in experiment [3], the inhibitory constant (Ki) worked out at 0.37 µM.
Take `CCCCCCCC/C=C\CCCCCCCC(=O)c1ncc(-c2cccnc2)o1`: in experiment [3], the inhibition constant Ki came out at 0.061 µM.
In the case of `O=C(CCCCCCc1ccccc1)c1ncc(-c2nccs2)o1`, the Ki in experiment [3] came to 0.0058 µM.
On the same count and under the same terms, the same measure for `CCC(=O)c1ncc(-c2ccccn2)o1`: 48 µM.
Same read-out and setting: under `C=CCCCCCCCC(=O)c1ncc(-c2ccccn2)o1` stands 0.011 µM.
For `CCCCCCCC/C=C\CCCCCCCC(=O)c1ncc(-c2nccs2)o1`, the Ki in experiment [3] came to 0.016 µM.
Still for that read-out and setting: the same measure for `O=C(CCCCCCc1ccccc1)c1ncc(-c2ccncn2)o1`: 0.0023 µM; for `CCCCCCCC/C=C\CCCCCCCC(=O)c1nc(-c2ccncc2)co1`: 0.078 µM.
In the case of `CCCCCCCCCCCC(=O)C(F)(F)F`, the IC50 is 0.06 µM on Liver carboxylesterase 1 and 0.5 µM in experiment [1].
For `CCCCCCCC/C=C\CCCCCCCC(=O)c1ncc(-c2cccn2C)o1`, in experiment [3], the inhibition constant Ki came to 8.6 µM.
On the same count and under the same terms, the same measure for `CCCCCCCC/C=C\CCCCCCCCc1ncc(-c2ccccn2)o1`: 23.2 µM; for `CCCC(=O)c1ncc(-c2ccccn2)o1`: 11 µM.
For the molecule `O=C(CCCCCCc1ccccc1)C(F)(F)F`, the half-maximal inhibitory concentration (IC50) in experiment [1] stood at 0.2 µM.
On to `O=C(CCCC#Cc1ccccc1)c1ncc(-c2ccccn2)o1`, for which the inhibitory constant (Ki) in experiment [3] was 0.021 µM.
Still for that read-out and setting: the same measure for `c1ccc(CCCCCCCc2ncc(-c3ccccn3)o2)cc1`: 20 µM.
For `CCCCCCCC/C=C\CCCCCCCC(=O)c1ncco1`, the IC50 in experiment [1] was over 100 µM. For the same molecule, the inhibition constant Ki in experiment [4] was 0.045 µM.
As to `CCCCCCCCCCCC(=O)c1ncc(-c2ccccn2)o1`, in experiment [3], the inhibition constant Ki was found to be 0.0022 µM.
